# Source: ChEMBL document CHEMBL5647690, “Inhibition of demethylases by GSK-J1/J4” (Nature, 2014)
# What was measured:
# Macrophage = assay: Antiinflammatory activity against human primary macrophages assessed as inhibition of LPS-activated TNF-alpha production incubated for 6 hrs by ELISA; type: functional, cell-based
# [1] = biological target: T1, Lysine-specific demethylase 3A (Homo sapiens, UniProt Q9Y4C1); assay: Inhibition of KDM3A (2 to 1322 residues)(unknown origin) by Alphalisa assay
# T1 sequence (Q9Y4C1 whole entry): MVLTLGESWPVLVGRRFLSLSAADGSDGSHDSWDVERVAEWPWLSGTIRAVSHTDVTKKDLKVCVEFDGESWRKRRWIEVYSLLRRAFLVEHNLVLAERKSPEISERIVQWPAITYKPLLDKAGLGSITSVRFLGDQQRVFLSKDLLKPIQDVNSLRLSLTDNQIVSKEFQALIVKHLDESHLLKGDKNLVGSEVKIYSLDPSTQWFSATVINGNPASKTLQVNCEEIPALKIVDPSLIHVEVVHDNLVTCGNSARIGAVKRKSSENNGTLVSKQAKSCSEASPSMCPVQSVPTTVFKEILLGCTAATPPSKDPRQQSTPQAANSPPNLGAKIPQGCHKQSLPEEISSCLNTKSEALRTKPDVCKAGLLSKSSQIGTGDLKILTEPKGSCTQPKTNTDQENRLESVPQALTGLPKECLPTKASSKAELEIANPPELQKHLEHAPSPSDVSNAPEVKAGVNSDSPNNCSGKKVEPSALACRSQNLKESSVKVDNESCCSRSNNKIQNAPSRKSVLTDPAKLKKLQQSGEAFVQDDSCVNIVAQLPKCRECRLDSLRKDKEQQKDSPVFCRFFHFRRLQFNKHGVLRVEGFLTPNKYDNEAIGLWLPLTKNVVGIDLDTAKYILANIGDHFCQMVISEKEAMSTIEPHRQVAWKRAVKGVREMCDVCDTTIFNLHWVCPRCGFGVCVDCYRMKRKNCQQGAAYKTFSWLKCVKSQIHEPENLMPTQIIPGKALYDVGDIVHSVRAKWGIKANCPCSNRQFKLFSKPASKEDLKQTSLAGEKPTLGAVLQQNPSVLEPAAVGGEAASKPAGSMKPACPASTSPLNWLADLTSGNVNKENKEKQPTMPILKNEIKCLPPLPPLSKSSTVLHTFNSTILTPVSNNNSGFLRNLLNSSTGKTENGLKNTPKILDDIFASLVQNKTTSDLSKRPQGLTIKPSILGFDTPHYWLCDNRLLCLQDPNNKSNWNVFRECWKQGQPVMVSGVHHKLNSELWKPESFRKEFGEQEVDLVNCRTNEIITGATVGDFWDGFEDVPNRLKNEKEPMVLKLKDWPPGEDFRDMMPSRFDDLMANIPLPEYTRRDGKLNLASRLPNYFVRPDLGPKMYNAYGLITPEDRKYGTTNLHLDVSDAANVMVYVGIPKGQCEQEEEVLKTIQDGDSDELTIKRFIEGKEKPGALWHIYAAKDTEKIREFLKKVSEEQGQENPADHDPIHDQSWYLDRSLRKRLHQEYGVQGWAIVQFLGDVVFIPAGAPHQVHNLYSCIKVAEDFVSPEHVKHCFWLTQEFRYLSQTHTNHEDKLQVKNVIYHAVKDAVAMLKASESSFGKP
# [2] = biological target: T2, Lysine-specific demethylase 4C (Homo sapiens, UniProt Q9H3R0); assay: Inhibition of epitope-tagged full length KDM4C (unknown origin) transfected in human U2OS cells using H3K9me3 peptide as substrate; type: cell-based
# T2 sequence (Q9H3R0 whole entry): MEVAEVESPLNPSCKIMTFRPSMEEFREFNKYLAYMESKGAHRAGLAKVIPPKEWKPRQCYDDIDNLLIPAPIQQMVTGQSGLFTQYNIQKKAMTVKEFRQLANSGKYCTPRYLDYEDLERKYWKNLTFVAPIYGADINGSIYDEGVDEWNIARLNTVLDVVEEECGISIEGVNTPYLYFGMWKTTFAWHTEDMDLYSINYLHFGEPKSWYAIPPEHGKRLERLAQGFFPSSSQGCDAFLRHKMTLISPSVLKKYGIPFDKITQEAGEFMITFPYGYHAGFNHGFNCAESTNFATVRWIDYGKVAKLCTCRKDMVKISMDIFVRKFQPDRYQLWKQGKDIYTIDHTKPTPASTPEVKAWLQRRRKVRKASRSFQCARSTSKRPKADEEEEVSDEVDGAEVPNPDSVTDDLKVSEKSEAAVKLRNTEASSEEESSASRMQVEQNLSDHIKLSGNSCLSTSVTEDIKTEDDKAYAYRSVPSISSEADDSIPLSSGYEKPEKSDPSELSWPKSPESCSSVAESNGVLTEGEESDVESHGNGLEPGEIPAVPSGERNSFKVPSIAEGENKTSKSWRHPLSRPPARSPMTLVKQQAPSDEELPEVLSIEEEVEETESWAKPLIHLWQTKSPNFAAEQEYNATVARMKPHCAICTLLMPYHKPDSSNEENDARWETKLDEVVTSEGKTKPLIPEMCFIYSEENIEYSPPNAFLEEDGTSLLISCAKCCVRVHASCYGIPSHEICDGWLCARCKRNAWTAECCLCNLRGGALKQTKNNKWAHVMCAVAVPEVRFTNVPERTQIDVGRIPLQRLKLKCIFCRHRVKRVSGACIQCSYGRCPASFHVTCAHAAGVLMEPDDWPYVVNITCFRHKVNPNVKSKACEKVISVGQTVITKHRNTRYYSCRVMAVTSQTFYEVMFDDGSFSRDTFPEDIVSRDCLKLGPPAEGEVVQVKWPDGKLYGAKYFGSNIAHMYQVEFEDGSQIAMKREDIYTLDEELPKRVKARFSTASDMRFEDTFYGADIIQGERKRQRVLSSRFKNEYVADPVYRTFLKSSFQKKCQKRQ
# [3] = biological target: Lysine-specific demethylase 5A (Homo sapiens, UniProt P29375); assay: Inhibition of KDM5A (1 to 1090 residues)(unknown origin) by Alphalisa assay
# Chain of Lysine-specific demethylase 5A (P29375 whole entry, the tested form may be a part): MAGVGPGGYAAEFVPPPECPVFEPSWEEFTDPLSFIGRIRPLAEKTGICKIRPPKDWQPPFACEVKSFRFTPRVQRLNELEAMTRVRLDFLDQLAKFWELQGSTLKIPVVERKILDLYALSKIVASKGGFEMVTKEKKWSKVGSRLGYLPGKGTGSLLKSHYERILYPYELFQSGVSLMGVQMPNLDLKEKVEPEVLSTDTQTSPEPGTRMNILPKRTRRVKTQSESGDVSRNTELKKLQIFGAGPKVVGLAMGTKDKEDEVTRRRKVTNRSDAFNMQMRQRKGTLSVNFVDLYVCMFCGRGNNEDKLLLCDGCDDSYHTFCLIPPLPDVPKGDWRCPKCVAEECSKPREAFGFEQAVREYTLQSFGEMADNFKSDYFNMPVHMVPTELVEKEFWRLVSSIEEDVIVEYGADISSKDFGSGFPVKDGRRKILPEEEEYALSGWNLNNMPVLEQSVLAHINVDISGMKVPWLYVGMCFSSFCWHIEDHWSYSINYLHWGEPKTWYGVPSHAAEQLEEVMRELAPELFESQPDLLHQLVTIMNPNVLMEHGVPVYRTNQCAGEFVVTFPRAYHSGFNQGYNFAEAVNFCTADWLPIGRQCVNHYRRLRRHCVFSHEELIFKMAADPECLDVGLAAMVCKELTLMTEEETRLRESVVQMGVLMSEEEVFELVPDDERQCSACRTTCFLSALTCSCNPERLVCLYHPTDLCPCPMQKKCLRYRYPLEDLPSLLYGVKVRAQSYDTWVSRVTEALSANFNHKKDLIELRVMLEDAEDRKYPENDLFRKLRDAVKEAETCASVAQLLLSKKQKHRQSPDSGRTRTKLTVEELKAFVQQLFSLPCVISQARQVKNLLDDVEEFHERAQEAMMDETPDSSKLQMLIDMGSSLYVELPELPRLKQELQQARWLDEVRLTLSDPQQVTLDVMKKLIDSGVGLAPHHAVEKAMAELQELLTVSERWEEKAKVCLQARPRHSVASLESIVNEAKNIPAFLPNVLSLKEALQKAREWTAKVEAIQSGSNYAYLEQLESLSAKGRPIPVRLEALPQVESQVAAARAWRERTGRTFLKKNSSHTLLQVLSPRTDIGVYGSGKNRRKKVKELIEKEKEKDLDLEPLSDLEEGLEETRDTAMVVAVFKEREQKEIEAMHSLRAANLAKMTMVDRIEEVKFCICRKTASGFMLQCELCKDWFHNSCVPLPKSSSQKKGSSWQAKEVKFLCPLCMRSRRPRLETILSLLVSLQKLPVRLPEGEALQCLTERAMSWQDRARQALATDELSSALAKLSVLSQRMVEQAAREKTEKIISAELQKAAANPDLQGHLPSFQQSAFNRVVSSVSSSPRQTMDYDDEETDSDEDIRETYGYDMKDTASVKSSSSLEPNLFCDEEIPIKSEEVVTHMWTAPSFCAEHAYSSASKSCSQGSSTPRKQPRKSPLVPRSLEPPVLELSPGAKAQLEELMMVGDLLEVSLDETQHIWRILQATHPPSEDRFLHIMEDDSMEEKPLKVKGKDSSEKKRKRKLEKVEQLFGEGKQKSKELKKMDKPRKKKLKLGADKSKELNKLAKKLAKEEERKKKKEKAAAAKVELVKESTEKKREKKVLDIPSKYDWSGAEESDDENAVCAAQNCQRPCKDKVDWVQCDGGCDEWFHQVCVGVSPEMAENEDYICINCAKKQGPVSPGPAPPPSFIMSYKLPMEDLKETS
IC50 (Macrophage),IC50 [1],IC50 [2],IC50 [3],Structure (SMILES)
9 µM,8.5 µM,7.3 µM,,CCOC(=O)CCNc1cc(N2CCc3ccccc3CC2)nc(-c2ccccn2)n1
,,,6.8 µM,O=C(O)CCNc1cc(N2CCc3ccccc3CC2)nc(-c2ccccn2)n1
